Test results taken from PMC9942557, “Bolaamphiphile Analogues of 12-bis-THA Cl2 Are Potent Antimicrobial Therapeutics with Distinct Mechanisms of Action against Bacterial, Mycobacterial, and Fungal Pathogens” (mSphere, 2022).
Like-named read-outs stand apart in the source and are kept apart here.

Key:
[1] = system: A. baumannii ATCC 17978; assay: G. mellonella burn wound infection model; assay type: in vivo, Galleria mellonella; details: alone
From the text: In addition to the intrahemocoelic infection/therapy models described above, a recently described G. mellonella burn wound model was adopted ([37]). The burn was created using the flat head of a nail, which was heated in a blue Bunsen burner flame until red hot, cooled for 15 s, and superficially applied for 2 s to generate a 2-mm^2 burn. Larvae were then infected with a single colony of A. baumannii ATCC 17978 applied directly to the burn site, or sterile phosphate-buffered saline was applied as a control. Treatment was applied topically 1 h after infection in a volume of 5 μL. Survival was monitored over 96 h.

[2] = system: K. pneumoniae NCTC 13368; assay: Fixed-concentration (0.25× MIC bolalipid) synergy broth microdilution; assay type: cell-based, Klebsiella pneumoniae; details: for MIC of aminoglycoside: K. pneumoniae NCTC 13368; for MIC: Klebsiella pneumoniae
[3] = system: P. aeruginosa PAO1; assay: as above; assay type: cell-based, Pseudomonas aeruginosa; details: for MIC: Pseudomonas aeruginosa, PAO1, P. aeruginosa PAO1, read-out: MIC of aminoglycoside; for MIC of antibiotic: P. aeruginosa PAO1
[4] = system: K. pneumoniae M6; assay: as above; assay type: cell-based; details: Klebsiella pneumoniae
[5] = system: A. baumannii AYE; assay: as above; assay type: cell-based; details: Acinetobacter baumannii
[6] = system: A. baumannii ATCC 17978; assay: as above; assay type: cell-based; details: Acinetobacter baumannii, ATCC17978, A. baumannii ATCC 17978, read-out: MIC of aminoglycoside
[7] = system: P. aeruginosa NCTC 13437; assay: as above; assay type: cell-based, Pseudomonas aeruginosa; details: for MIC: Pseudomonas aeruginosa, NCTC13437, P. aeruginosa NCTC 13437, read-out: MIC of aminoglycoside; for MIC of antibiotic: P. aeruginosa NCTC 13437
[8] = system: E. coli NCTC 12923; assay: as above; assay type: cell-based; details: Escherichia coli, NCTC12923, E. coli NCTC 12923, read-out: MIC of aminoglycoside
[9] = system: EMRSA-15; assay type: in vivo, Galleria mellonella
[10] = system: Ac. pleuropneumoniae 2356; assay: Checkerboard synergy assay (BHI, 5% FBS, 0.01% NAD); assay type: cell-based, Actinobacillus pleuropneumoniae
[11] = system: Ac. pleuropneumoniae 3370; assay: as above; assay type: cell-based, Actinobacillus pleuropneumoniae
[12] = system: Ac. pleuropneumoniae Shope; assay: as above; assay type: cell-based, Actinobacillus pleuropneumoniae
[13] = system: Ac. pleuropneumoniae 2331; assay: as above; assay type: cell-based, Actinobacillus pleuropneumoniae
[14] = system: Pseudomonas aeruginosa RP73; assay: In vitro pharmacodynamic (PD) assay; details: P. aeruginosa RP73; combination 2:1 (wt/wt)
Protocol: In vitro PD assays were performed with Pseudomonas aeruginosa RP73 cultured in Roswell Park Memorial Institute 1640 medium (RPMI) supplemented with 5% Mueller-Hinton broth (MHB) ([35]). Bacteria were cultured overnight in 10 mL of RPMI–5% MHB at 37°C and diluted just prior to plate inoculation to an OD600 of 0.002. Stock solutions of colistin or tobramycin were prepared in sterile MilliQ water at a concentration of 200× MIC. Octa-bola was prepared in methanol at 2,000× MIC and diluted in water to 200× MIC. A dilution series was made in the top row of a polypropylene 96-well plate from 200× MIC to 0.2× MIC in a volume of 100 μL, to which 100 μL of the bacterial suspension was added to have a total of 1 × 10^6 log-phase CFU in 200 μL. The first time zero sample was taken <30 s after addition of bacteria to the plate, with further samples taken at appropriate intervals thereafter. […] Fifteen microliters was removed from each well, diluted 1:1,000 in phosphate-buffered saline, and plated onto RPMI–5% MH agar plates. The plates were incubated at 37°C overnight for CFU counting.
CFU data were log10 transformed, and the bacterial net growth rate was determined from the increase or decrease in CFU during the time of exposure to the antibiotics as the coefficient of a linear regression of log10 CFU as a function of time. The intercept of the regression was fixed by forcing the regression lines through the first CFU measurement (0 min) at a given antimicrobial concentration. The pharmacodynamic function according to Regoes et al. ([36]) describes the relationship between bacterial net growth rate (ψ) and the concentration of an antimicrobial (a): ψmax − ([ψmax − ψmin][a/zMIC])^κ/([a/zMIC]^κ − [ψmin/ψmax]). Fitting this function to the net bacterial growth rates in OriginPro 2020 (OriginLab Corporation, Northampton, MA) generates the parameters ψmin and ψmax (minimum and maximum growth rates, respectively), zMIC (the pharmacodynamic MIC), and κ (a measure of the cooperativity). […]

[15] = in the presence of 0.25× MIC Octa-C6
[16] = in the presence of 0.25× MIC Octa-C10
[17] = in the presence of 0.25× MIC Octa-Bola
[18] = No bola, read-out: MIC of aminoglycoside
[19] = in the presence of 0.25× MIC Octa-Bola, read-out: MIC of aminoglycoside
[20] = in the presence of 0.25× MIC Octa-C6, read-out: MIC of aminoglycoside
[21] = in the presence of 0.25× MIC Octa-C10, read-out: MIC of aminoglycoside
[22] = in the presence of 0.25× MIC Octa-C10 (Table S1)
[23] = in the presence of 0.25× MIC Octa-bola (Table S1)

Question: CNC(C)C1CCC(N)C(OC2C(N)CC(N)C(OC3OCC(C)(O)C(NC)C3O)C2O)O1 (centres unmarked) [Gentamicin] was tested. Which larvae rescued ([1]; 5 mg/kg topical, 96 h) did it give?
Answer: The larvae rescued was 76%.

Question: What about the protection ([1]; lower doses (2.5 and 1.25 mg/kg)) of the same molecule?
Answer: The protection was “ineffective”.

Question: What about the MIC of aminoglycoside [2, 15] of the same molecule?
Answer: The MIC of aminoglycoside was 16 µg/mL.

Question: And the MIC of aminoglycoside [2, 16]?
Answer: Its MIC of aminoglycoside is 16 µg/mL.

Question: What about the MIC ([2]; NCTC13368, K. pneumoniae NCTC 13368, in the presence of 0.25× MIC Octa-Bola, read-out: MIC of aminoglycoside) of the same molecule?
Answer: The MIC was 8 µg/mL.

Question: What about the MIC ([2]; NCTC13368, read-out: MIC of aminoglycoside) of the same molecule?
Answer: The MIC was 16 µg/mL.

Question: What about the MIC ([3]; No bola) of the same molecule?
Answer: The MIC was 2 µg/mL.

Question: And the MIC [3, 17]?
Answer: The MIC was 0.5 µg/mL.

Question: What about the MIC [3, 15] of the same molecule?
Answer: The MIC was 0.25 µg/mL.

Question: And the MIC [3, 16]?
Answer: The MIC was 0.25 µg/mL.

Question: What about the MIC [4, 18] of the same molecule?
Answer: The MIC was 1 µg/mL.

Question: What about the MIC [4, 19] of the same molecule?
Answer: The MIC was 1 µg/mL.

Question: What about the MIC [4, 20] of the same molecule?
Answer: Its MIC is 1 µg/mL.

Question: What about the MIC [4, 21] of the same molecule?
Answer: The MIC was 1 µg/mL.

Question: And the MIC [5, 18]?
Answer: The MIC was 256 µg/mL.

Question: What about the MIC [5, 19] of the same molecule?
Answer: The MIC was 0.5 µg/mL.

Question: What about the MIC [5, 20] of the same molecule?
Answer: Its MIC is 32 µg/mL.

Question: What about the MIC [5, 21] of the same molecule?
Answer: The MIC was 4 µg/mL.

Question: What about the MIC ([6]; No bola) of the same molecule?
Answer: Its MIC is 2 µg/mL.

Question: And the MIC [6, 17]?
Answer: The MIC was 0.25 µg/mL.

Question: What about the MIC [6, 15] of the same molecule?
Answer: Its MIC is 1 µg/mL.

Question: And the MIC [6, 16]?
Answer: Its MIC is 1 µg/mL.

Question: What about the MIC ([7]; No bola) of the same molecule?
Answer: The MIC was 256 µg/mL.

Question: What about the MIC [7, 17] of the same molecule?
Answer: The MIC was 8 µg/mL.

Question: What about the MIC [7, 15] of the same molecule?
Answer: The MIC was 8 µg/mL.

Question: And the MIC [7, 16]?
Answer: Its MIC is 8 µg/mL.

Question: And the MIC ([8]; No bola)?
Answer: The MIC was 2 µg/mL.

Question: What about the MIC [8, 17] of the same molecule?
Answer: The MIC was 2 µg/mL.

Question: What about the MIC [8, 15] of the same molecule?
Answer: Its MIC is 2 µg/mL.

Question: And the MIC [8, 16]?
Answer: The MIC was 1 µg/mL.

Question: Which infected larvae rescued ([9]; 50 mg/kg, single injection 2 h postinfection) does the source give for CN[C@H](CC(C)C)C(=O)N[C@H]1C(=O)N[C@@H](CC(N)=O)C(=O)N[C@H]2C(=O)N[C@H]3C(=O)N[C@H](C(=O)N[C@H](C(=O)O)c4cc(O)cc(O)c4-c4cc3ccc4O)[C@H](O)c3ccc(c(Cl)c3)Oc3cc2cc(c3O[C@@H]2O[C@H](CO)[C@@H](O)[C@H](O)[C@H]2O[C@H]2C[C@](C)(N)[C@H](O)[C@H](C)O2)Oc2ccc(cc2Cl)[C@H]1O [Vancomycin, reference compound] here?
Answer: The infected larvae rescued was about 80%.

Question: And the infected larvae rescued ([9]; a tenth of 50 mg/kg dose)?
Answer: The infected larvae rescued was 45%.

Question: What does the source list for CCN1CCN(c2cc3c(cc2F)c(=O)c(C(=O)O)cn3C2CC2)CC1 [enrofloxacin, reference compound]?
Answer: MIC alone Antibiotic ([10]; Octa-C10/enrofloxacin): 0.125 µg/mL; MIC alone Antibiotic ([11]; Octa-C10/enrofloxacin): 0.125 µg/mL; MIC alone Antibiotic ([12]; Octa-C10/enrofloxacin): 0.125 µg/mL; MIC alone Antibiotic ([13]; Octa-C10/enrofloxacin): 0.125 µg/mL

Question: Which results are given for [H]/N=C(/N)N[C@H]1[C@H](O)[C@@H](O)[C@H](O[C@@H]2O[C@@H](C)[C@](O)(C=O)[C@H]2O[C@@H]2O[C@@H](CO)[C@H](O)[C@@H](O)[C@@H]2NC)[C@@H](N/C(N)=N\[H])[C@@H]1O [streptomycin, reference compound]?
Answer: MIC alone Antibiotic ([10]; Octa-C10/streptomycin): 64 µg/mL; MIC alone Antibiotic ([11]; Octa-C10/streptomycin): 16 to 64 µg/mL; MIC alone Antibiotic ([12]; Octa-C10/streptomycin): 32 to 64 µg/mL; MIC alone Antibiotic ([13]; Octa-C10/streptomycin): 32 µg/mL

Question: What does the source list for Colistin?
Answer: MIC of antibiotic ([3]; No bola (Table S1)): 0.125 to 0.25 µg/mL; MIC of antibiotic [3, 22]: 0.06 µg/mL; MIC of antibiotic [3, 23]: 0.06 µg/mL; bactericidal activity (minimum growth rate, ψmin) [14]: weakly bactericidal; MIC of antibiotic ([7]; No bola (Table S1)): 0.25 to 0.5 µg/mL; MIC of antibiotic [7, 22]: 0.125 to 0.25 µg/mL; MIC of antibiotic [7, 23]: 0.125 µg/mL
